Two compounds from ChEMBL document CHEMBL4706551, “Rational design of new multitarget histamine H receptor ligands as potential candidates for treatment of Alzheimer's disease” (Eur J Med Chem, 2020) can be followed below.

Data set [1] concerns the target T1, Acetylcholinesterase (Electrophorus electricus, UniProt O42275). In words: Inhibition of Electric eel AChE using ATCI as substrate preincubated with enzyme for 60 mins followed by substrate addition and measured for 120 secs by spectrophotometric based Ellman's method. For orientation: Ellman's reagent forms a yellow product with free thiols.
Data set [2] deals with Cholinesterase (Equus caballus) (UniProt P81908). The data set can be described thus: Non-competitive inhibition of equine serum BChE using BTCI as substrate incubated for 5 mins followed by substrate addition and measured after 5 mins by spectrophotometric based Lineweaver-Burk plot analysis. The data set is classed as cell-free. To be noted: time 10.0 min.
Data set [3] deals with T2, MAO-A (Homo sapiens, UniProt P21397).
T2 sequence (P21397 whole entry): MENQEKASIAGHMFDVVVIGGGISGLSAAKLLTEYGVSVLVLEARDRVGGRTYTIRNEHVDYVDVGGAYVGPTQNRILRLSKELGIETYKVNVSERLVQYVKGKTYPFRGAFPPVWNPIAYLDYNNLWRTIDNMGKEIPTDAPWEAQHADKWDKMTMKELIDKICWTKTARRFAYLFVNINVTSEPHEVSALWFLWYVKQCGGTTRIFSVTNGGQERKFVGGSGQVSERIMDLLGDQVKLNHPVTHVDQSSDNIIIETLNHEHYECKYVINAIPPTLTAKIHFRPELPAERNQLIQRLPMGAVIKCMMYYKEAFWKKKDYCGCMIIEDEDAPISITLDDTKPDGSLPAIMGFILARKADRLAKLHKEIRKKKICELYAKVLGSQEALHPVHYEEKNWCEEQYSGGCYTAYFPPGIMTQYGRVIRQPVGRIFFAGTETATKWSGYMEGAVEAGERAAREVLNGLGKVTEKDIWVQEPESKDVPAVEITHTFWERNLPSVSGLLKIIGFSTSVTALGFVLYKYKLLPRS
The data set can be described thus: in vitro. Conditions: probe p-tyramine.
Description: Inhibition of recombinant human MAO-A expressed in baculovirus infected BTI cells at 1 uM using p-tyramine as substrate by fluorometric assay relative to control

The target in data set [4] is Cholinesterase (Equus caballus) (UniProt P81908). The data set can be described thus: Non-competitive inhibition of equine serum BChE using BTCI as substrate incubated for 5 mins followed by substrate addition and measured after 5 mins by spectrophotometric based Cornish-Bowden plot analysis. Conditions: time 10.0 min. Format: cell-free.
Data set [5] has as its target T3, Amine oxidase [flavin-containing] B (Homo sapiens, UniProt P27338).
T3 sequence (P27338 whole entry): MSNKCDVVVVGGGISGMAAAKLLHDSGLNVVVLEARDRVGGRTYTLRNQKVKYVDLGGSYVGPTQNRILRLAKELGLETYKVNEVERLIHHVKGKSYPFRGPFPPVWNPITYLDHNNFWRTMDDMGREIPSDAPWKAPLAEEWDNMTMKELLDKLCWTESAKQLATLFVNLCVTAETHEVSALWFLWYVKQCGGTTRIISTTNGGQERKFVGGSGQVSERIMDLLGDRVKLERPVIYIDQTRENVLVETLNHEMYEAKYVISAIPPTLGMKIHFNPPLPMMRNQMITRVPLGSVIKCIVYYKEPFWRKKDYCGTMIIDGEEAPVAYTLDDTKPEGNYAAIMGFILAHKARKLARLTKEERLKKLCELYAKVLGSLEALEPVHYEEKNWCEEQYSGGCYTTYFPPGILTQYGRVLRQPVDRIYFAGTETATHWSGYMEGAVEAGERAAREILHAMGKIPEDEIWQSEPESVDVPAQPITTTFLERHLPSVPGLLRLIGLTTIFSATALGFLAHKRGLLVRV
In words: biochemical. Format: cell-based, BTI.
Description: Inhibition of recombinant human MAO-B expressed in baculovirus infected BTI cells using p-tyramine as substrate by fluorometric assay

In data set [6] the test system is Mus musculus. The data set can be described thus: Analgesic activity in formalin-induced nociception CD-1 mouse model assessed as reduction in pain behaviour by measuring less licking of formalin injected hind paw compound administered intraperitoneally prior to formalin induction and measured during early phase (0 to 5 mins after formalin injection) by formalin test. The data set is classed as functional. To be noted: CD-1, ip, time 0-5 min.

For data set [7], the target named is Acetylcholinesterase (Electrophorus electricus) (UniProt O42275). In words: Non-competitive inhibition of Electric eel AChE using ATCI as substrate incubated for 5 mins followed by substrate addition and measured after 5 mins by spectrophotometric based Cornish-Bowden plot analysis. To be noted: time 10.0 min.
For data set [8], the system named is Rattus norvegicus. In words: Memory enhancement effect in dizocilpine-induced Wistar (Krf:WI) rat model of amnesia assessed as increase in step through latency at 1.25 to 5 mg/kg, ip measured after 30 to 45 mins by step-through passive avoidance test. Format: functional, organism-based. Conditions: dose 1.25-5 mg/kg, time 30-45 min.
Data set [9] deals with T1, Acetylcholinesterase.
Description: Inhibition of Electric eel AChE using ATCI as substrate incubated for 5 mins followed by substrate addition and measured after 5 mins by spectrophotometric based Ellman's method
The target in data set [10] is Acetylcholinesterase (Homo sapiens, UniProt P22303). The data set can be described thus: Inhibition of recombinant human AChE using ATCI as substrate incubated for 5 mins followed by substrate addition and measured after 5 mins by spectrophotometric based Ellman's method.
Data set [11] is described as follows: in vitro. Conditions: PAMPA, pH 7.4. Background: In PAMPA a lipid-coated filter parts donor from acceptor wells.
Description: Permeability of compound in PBS buffer assessed as permeability coefficient at pH 7.4 at 200 uM incubated for 5 hrs by PAMPA based LC-MS analysis
The target of data set [12] is Acetylcholinesterase (Electrophorus electricus) (UniProt O42275). The data set can be described thus: Non-competitive inhibition of Electric eel AChE using ATCI as substrate incubated for 5 mins followed by substrate addition and measured after 5 mins by spectrophotometric based Lineweaver-Burk plot analysis. To be noted: time 10.0 min.
In data set [13] the target is Cholinesterase (Homo sapiens, UniProt P06276).
Description: Inhibition of human BuChE by spectrophotometric based Ellman's method
Data set [14] deals with T2, MAO-A. The data set can be described thus: Inhibition of recombinant human MAO-A expressed in baculovirus infected BTI cells at 10 uM using p-tyramine as substrate by fluorometric assay relative to control. Conditions: probe p-tyramine.
Data set [15] has as its system Rattus norvegicus. The data set can be described thus: Memory enhancement effect in dizocilpine-induced Wistar (Krf:WI) rat model of amnesia assessed as decrease in transfer latency time at 1.25 to 5 mg/kg, ip measured after 30 to 45 mins by elevated plus maze test. To be noted: dose 1.25-5 mg/kg, time 30-45 min. Format: functional, organism-based.
Data set [16] addresses Cholinesterase (Equus caballus, UniProt P81908).
Description: Inhibition of equine serum BChE using BTCI as substrate incubated for 5 mins followed by substrate addition and measured after 5 mins by spectrophotometric based Ellman's method
Data set [17] deals with Mus musculus. In words: Analgesic activity in formalin-induced nociception CD-1 mouse model assessed as reduction in pain behaviour by measuring less licking of formalin injected hind paw compound administered intraperitoneally prior to formalin induction and measured during late phase (15 to 30 mins after formalin injection) by formalin test. Format: functional. Conditions: CD-1, ip, time 15-30 min.

Data set [18] concerns the target Histamine H3 receptor (Homo sapiens, UniProt Q9Y5N1). In words: biochemical.
Description: Displacement of [3H]N-alpha-methylhistamine from recombinant human histamine H3 receptor expressed in CHO-K1 cells by microbeta scintillation analysis

pIC50, pKi: −log10 of the molar value. The source made the active and inactive calls. The calls are words filed in the database; no cut-off is given here.

What is called pIC50 is −log10 of the IC50, conventionally taken in molar units. The term inhibition denotes the relative decrease from the control value, in per cent. The term ED50 denotes the dose that gives a 50% effect, or the effect in half of the subjects. The Papp is a coefficient for how fast a substance crosses the barrier. Low readings indicate poor permeation, high ones ready permeation. As usually defined, the pKi is −log10 of the Ki, conventionally taken in molar units.

Chain of Cholinesterase (Equus caballus) (P81908 whole entry): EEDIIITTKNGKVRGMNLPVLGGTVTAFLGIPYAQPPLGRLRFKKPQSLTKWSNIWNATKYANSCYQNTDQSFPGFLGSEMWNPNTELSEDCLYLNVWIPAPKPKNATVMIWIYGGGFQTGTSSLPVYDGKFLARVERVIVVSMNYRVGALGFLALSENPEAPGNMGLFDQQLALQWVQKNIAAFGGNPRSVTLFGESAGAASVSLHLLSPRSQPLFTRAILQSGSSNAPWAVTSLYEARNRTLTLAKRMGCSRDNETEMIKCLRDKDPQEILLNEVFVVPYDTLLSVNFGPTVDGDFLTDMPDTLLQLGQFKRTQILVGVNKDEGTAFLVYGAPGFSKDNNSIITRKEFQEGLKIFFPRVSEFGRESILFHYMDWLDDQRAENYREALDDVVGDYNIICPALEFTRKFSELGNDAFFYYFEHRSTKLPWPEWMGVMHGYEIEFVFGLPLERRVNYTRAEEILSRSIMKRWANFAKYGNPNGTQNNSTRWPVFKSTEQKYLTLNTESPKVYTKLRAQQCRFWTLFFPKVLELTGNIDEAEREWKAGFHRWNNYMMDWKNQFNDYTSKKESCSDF
Chain of Acetylcholinesterase (Electrophorus electricus) (O42275 24-633 limits assumed): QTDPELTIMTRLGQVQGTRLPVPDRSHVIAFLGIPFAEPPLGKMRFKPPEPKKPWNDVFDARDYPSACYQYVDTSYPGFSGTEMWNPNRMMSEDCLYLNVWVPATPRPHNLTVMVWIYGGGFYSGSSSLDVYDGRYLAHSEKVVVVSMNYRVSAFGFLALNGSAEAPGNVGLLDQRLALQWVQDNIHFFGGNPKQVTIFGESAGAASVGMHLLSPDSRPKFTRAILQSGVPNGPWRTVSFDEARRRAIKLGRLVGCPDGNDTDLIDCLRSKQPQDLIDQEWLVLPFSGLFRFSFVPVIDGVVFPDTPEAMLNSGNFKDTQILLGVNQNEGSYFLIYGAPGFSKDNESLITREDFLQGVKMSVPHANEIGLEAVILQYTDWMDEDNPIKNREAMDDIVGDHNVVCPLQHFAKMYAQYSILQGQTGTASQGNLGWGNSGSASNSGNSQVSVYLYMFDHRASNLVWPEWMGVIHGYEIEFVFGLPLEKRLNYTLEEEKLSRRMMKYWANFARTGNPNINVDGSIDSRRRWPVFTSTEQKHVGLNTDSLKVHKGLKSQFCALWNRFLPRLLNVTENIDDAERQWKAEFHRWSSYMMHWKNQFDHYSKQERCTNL
T1 sequence (O42275 whole entry): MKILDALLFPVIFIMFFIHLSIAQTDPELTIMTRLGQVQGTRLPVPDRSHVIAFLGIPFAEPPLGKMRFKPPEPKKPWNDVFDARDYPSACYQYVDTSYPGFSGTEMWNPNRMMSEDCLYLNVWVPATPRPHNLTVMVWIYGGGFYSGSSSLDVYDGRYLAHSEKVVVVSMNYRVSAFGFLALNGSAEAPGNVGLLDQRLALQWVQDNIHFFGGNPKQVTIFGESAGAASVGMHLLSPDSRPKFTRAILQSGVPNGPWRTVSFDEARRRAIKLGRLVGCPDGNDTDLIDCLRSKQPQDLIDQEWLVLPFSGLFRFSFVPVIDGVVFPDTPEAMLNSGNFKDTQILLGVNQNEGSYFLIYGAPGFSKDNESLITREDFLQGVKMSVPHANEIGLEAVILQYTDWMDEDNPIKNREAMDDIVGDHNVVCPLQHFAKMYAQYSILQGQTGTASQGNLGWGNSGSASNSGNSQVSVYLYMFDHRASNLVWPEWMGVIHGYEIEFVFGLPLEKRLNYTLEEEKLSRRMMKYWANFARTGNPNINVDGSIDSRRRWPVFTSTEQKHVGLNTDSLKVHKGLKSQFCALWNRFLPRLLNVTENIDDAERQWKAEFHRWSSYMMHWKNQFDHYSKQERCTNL
Chain of Cholinesterase (Homo sapiens, UniProt P06276) (P06276 whole entry): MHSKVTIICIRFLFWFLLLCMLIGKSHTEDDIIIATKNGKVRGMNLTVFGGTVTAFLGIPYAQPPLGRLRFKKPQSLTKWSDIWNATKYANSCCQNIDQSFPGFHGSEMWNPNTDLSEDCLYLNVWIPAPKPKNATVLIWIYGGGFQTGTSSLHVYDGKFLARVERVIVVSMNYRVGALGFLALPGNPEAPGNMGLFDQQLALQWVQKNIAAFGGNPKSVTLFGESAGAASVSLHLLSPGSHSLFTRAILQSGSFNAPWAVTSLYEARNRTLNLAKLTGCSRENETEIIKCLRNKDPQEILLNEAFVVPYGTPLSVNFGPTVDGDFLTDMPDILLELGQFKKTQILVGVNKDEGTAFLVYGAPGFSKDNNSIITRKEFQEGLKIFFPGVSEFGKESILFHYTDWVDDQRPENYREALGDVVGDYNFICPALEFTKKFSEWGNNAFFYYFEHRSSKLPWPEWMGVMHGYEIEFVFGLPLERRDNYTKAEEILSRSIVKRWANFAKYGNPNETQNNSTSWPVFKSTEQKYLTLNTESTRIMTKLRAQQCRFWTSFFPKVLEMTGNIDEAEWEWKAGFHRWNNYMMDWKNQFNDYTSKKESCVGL
Chain of Cholinesterase (Equus caballus, UniProt P81908) (P81908 whole entry): as the sequence (P81908 whole entry) above
Chain of Acetylcholinesterase (Homo sapiens, UniProt P22303) (P22303 whole entry): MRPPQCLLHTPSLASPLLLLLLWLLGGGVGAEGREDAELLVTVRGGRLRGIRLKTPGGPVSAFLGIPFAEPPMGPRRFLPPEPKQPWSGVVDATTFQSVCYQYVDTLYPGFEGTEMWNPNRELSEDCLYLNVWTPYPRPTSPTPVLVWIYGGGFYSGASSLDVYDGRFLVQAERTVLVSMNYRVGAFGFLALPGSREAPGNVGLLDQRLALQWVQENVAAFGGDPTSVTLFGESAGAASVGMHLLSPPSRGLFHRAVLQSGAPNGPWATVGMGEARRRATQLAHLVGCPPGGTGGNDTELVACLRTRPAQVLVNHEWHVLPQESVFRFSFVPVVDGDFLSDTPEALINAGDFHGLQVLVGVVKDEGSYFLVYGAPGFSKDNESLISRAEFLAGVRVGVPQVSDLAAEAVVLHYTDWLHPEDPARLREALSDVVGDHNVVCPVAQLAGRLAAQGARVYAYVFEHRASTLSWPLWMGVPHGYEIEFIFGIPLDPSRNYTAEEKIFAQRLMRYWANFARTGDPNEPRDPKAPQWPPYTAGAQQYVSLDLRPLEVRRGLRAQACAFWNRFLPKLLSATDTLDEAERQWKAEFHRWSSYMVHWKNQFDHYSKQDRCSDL
Chain of Histamine H3 receptor (Q9Y5N1 whole entry): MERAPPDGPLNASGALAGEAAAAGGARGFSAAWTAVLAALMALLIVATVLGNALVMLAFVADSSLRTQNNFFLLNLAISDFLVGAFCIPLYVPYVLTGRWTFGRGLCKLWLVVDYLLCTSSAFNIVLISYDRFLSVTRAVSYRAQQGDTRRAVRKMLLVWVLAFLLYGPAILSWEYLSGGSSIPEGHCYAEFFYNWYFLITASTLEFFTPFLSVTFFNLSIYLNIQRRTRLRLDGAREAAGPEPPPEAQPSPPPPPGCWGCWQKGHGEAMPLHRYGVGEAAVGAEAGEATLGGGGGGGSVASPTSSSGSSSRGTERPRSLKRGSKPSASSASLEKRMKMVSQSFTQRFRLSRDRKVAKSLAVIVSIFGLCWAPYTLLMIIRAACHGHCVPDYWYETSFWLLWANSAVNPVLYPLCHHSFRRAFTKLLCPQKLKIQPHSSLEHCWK

Take `O=c1c2ccccc2oc2cc(OCCCCCN3CCCCC3)cc(O)c12`: in [1], the pIC50 is 6.34.

`O=c1c2cc(Cl)ccc2oc2ccc(OCCCCCN3CCCCCC3)cc12`: the inhibition entry in data set [2], in data set [4], in [7] and in [12] was “Active” in each case. This compound returned an inhibition at 1 µM in [3] of 12%. Also, the pIC50 was 6.05 in data set [5]; 6.87 in data set [9]; 6.92 in data set [10]; 5.80 in [13]; 6.40 in data set [16]. Besides, the ED50 in [6] was 27.3 mg/kg; in data set [17], 22.5 mg/kg. The outcome in data set [8] and in [15] was inactive. This compound also displayed an apparent permeability coefficient (Papp) at 5 h, 200 µM in [11] of 2.2 ×10⁻⁶ cm/s. Also, in data set [14], the inhibition at 10 µM is less than 50%. Besides, in data set [18], the pKi was 7.00.
